Assays:
[1] = system: HepG2/SB3 and HepG2/CTR cells; assay: Cell viability by MTT assay with antitumor drugs in the absence or presence of PPA; assay type: cell-based; settings: for Resistance/sensitivity to drug-induced cell death, HepG2/SB3 compared with HepG2/CTR: drug 10 μM, without PPA
Method: The SeprinB3 molecule is known to induce resistance to chemotherapy treatment. In order to evaluate whether the inhibition of said molecule is able to increase the therapeutic efficacy of antitumor drugs, HepG2 cells stably transfected to overexpress SerpinB3 (HepG2/SB3) and HepG2 cells transfected with only the empty plasmid (HepG2/CTR) have been incubated with several antitumor drugs at a concentration of 10 μM (Cisplatin, Sorafenib, 5-Fluorouracil, Methotrexate) in the absence or presence of PPA. […] The results are expressed as a percentage of viability compared to cells incubated with only medium (CTR).

MDR1 and MDR2 genes = assay: Multidrug resistance gene expression by real time PCR; assay type: cell-based; settings: HepG2/SB3 cells, PPA 10 and 100 ng/ml, 24 hours
Method: In order to understand more fully whether the resistance to chemotherapeutic drugs induced by SerpinB3 is exclusively linked to the increased resistance to cell death following the reduced activation of the mitochondrial proapoptotic cascade, the genes involved in multiple resistance to chemotherapeutic drugs have been analysed (multidrug resistance, MDR). In particular, HepG2/SB3 and HepG2 control cells (HepG2/empty) were collected after 24 hours of treatment with PPA at the doses of 10 ng/ml and 100 ng/ml and the gene expression was analysed as follows: MDR 1, MDR 2, MRP1, MRP2, MRP3, GSTP1 by real time PCR according to standard protocols.

CCL15 and PD-L1 = assay: Expression of SerpinB3-induced cytokines in THP-1 cells; assay type: cell-based; settings: PPA 1 ng/ml
Description: It has been documented that SerpinB3, in addition to inducing resistance to cell death and increased proliferation, is able to induce a reduction in tumor immunosurveillance, in particular through the increased production of cytokines such as CCL15, recently involved in the reduction of immune surveillance in hepatocellular carcinoma, and the immune checkpoint molecule PD-L1, towards which several new antitumor drugs are directed.

[2] = system: tumor development in the liver; assay: DEN plus CDAA diet mouse model of obesity-associated carcinogenesis; assay type: in vivo
Description: To better assess the role of SerpinB3 in carcinogenesis, a mouse model of obesity-associated carcinogenesis that requires a single administration of diethyl-nitrosamine (DEN) has been developed in mice with different expression of SerpinB3. The study has been performed in mice transgenic for human SerpinB3 (SerpinB3/TG) (the initial colony was kindly provided by Prof. Cassani, Tecnogen, Caserta, Italy) and in SerpinB3 knockout mice (SerpinB3/KO) (the initial colony was kindly provided by Dr. Gary Silverman and Dr. Cliff J. Luke, University of Pittsburg, Children's Hospital, Pittsburg, Pa.). Moreover wild type mice of similar age were used as controls. All animals were bred and maintained with free access to pellet food and water at the Animal Care Facility of the Experimental Surgery Division of the University of Padua.
Mice were injected with (DEN, 25 mg/kg i.p.) at the age of 2 weeks. These mice were fed at the age of 6 weeks with a choline-deficient L-amino acid-defined (CDAA) diet and part of them were sacrificed after […], while the remaining mice were sacrificed after […]. Two groups of control mice were also treated or not with PPA (weekely intraperitoneal injection of 50 ng/g of body weight) during CDAA diet. The experimental protocol was approved by the local Ethical Committee and by the Italian Ministry of Health (Authorization N. 442/2018-PR).

[3] = system: HepG2 liver tumor derived cells (HB8065); assay: Real-time cell proliferation / cellular toxicity (xCELLigence, Normalized Cell Index); assay type: cell-based; settings: monitored for over 60 hours
Method: HepG2 liver tumor derived cells (HB8065), incubated with increasing concentrations of 1′-Piperidin propionic acid (PPA) in a range of 5 -50 μg/ml were used and real-time cell proliferation was analysed, using xCELLigence instrument (ACEA Biosciences, Inc., San Diego, Calif., USA), according to the supplier's instructions. In each well of an E-16 plate, 4×10^4 HepG2 cells (HB8065) were seeded in quadruplicate, cultured in complete MEM medium (Sigma-Aldrich, Milan, Italy) supplemented with 10% fetal calf serum (Sigma-Aldrich, Milan, Italy), 100 U/mL of penicillin, 100 μg/ml of streptomycin, and 20 mM L-glutamine (Sigma-Aldrich, Milan, Italy) and 1% of MEM Non Essential Amino Acids. The cells were kept in an incubator at 37° C. with 95% humidity and 5% CO2 saturation. The complete medium was used as a control. The RTCA system monitored the electrical impedance, which is directly proportional to the number of cells present per well, indicated as Cell Index every 5 min for over 60 hours. The cell proliferation curves were analysed with the RTCA software and expressed as the Normalized Cell Index at the time of the treatment with PPA, an arbitrary unit corresponding to the number of cells present per well.
It should be noted that said concentration (5 μg/ml) is markedly higher than the biologically active PPA concentrations, whose normal range of use was 10-100 ng/ml.

[4] = system: THP-1 cells of monocytic origin; assay: Real-time proliferation of THP-1 cells stimulated with exogenous SerpinB3 (xCELLigence); assay type: cell-based; settings: THP-1 cells with exogenous SerpinB3 20 ng/ml, PPA 1 ng/ml, 10 ng/ml, 10 μg/ml, up to 120 hours
Method: To evaluate cell proliferation in real time, the xCELLigence instrument (ACEA Biosciences, Inc., San Diego, Calif., USA) was used, as described in Example 1. THP-1 cells of monocytic origin were used, whose incubation with exogenous recombinant SerpinB3 (20 ng/ml) had induced a marked increase in the synthesis of endogenous SerpinB3, as reported in Example 2. A suspension of […] cells in quadruplicate was seeded in each well of an E-16 plate, cultured in complete RPMI medium (Sigma-Aldrich, Milan, Italy). The cells incubated with SerpinB3 alone or in the presence of PPA (1 ng/ml-10ng/ml-10 μg/ml) were monitored for up to 120 hours by the xCELLigence instrument and the cell proliferation curves shown in FIG. 3 were processed and expressed by the RTCA software as the Normalized Cell Index.

SerpinB3 = SerpinB3 mRNA expression by real-time PCR (induced by exogenous SerpinB3 in THP-1 and HT29; constitutive in OE33 and HepG2/SB3); assay type: cell-based
Method: PPA was added in culture at a concentration of 1-100 ng/ml alone or in combination with recombinant SerpinB3 (SB3) at a concentration of 20-200 ng/ml to the cells, while only culture medium was added to the control wells. After 24 hours of treatment, the cells were collected by scraper and the extraction of total cell RNA and reverse transcription were performed according to standard protocols. SerpinB3 mRNA levels were measured by real-time PCR (sense: 5′-[…]-3′ (SEQ ID NO:1); reverse 5′-[…]-3′ (SEQ ID NO:2)).
They were seeded in 6-well plates and kept for 24 hours before treatment, each in its own complete culture medium in (Sigma-Aldrich, Milan, Italy). PPA (1′-piperidin propionic acid) was then added at a concentration of 10-100 ng/ml in PBS.
It should be noted that concentrations of 1-10 ng/ml are already able to reduce the synthesis of SerpinB3 by about 50%.

CNC(=O)c1cc(Oc2ccc(NC(=O)Nc3ccc(Cl)c(C(F)(F)F)c3)cc2)ccn1 [Sorafenib, reference compound]
Resistance/sensitivity to drug-induced cell death, HepG2/SB3 compared with HepG2/CTR [1]: greater resistance to cell death

CN(Cc1cnc2nc(N)nc(N)c2n1)c1ccc(C(=O)N[C@@H](CCC(=O)O)C(=O)O)cc1 [Methotrexate, reference compound]
Resistance/sensitivity to drug-induced cell death, HepG2/SB3 compared with HepG2/CTR [1]: not different

N.N.[Cl][Pt][Cl] [Cisplatin, reference compound]
Resistance/sensitivity to drug-induced cell death, HepG2/SB3 compared with HepG2/CTR [1]: greater resistance to cell death

O=C(O)CCN1CCCCC1 [PPA, 3-(1-piperidinyl)propanoic acid]
Viability of cells with high levels of SerpinB3 treated with 5-Fluorouracil, on addition of PPA ([1]; HepG2/SB3, 5-Fluorouracil 10 μM): significant reduction of viability | Viability of cells with high levels of SerpinB3 treated with Cisplatin, on addition of PPA ([1]; HepG2/SB3, Cisplatin 10 μM): significant reduction of viability | Viability of cells with high levels of SerpinB3 treated with Methotrexate, on addition of PPA ([1]; HepG2/SB3, Methotrexate 10 μM): did not change | Viability of cells with high levels of SerpinB3 treated with Sorafenib, on addition of PPA ([1]; HepG2/SB3, Sorafenib 10 μM): significant reduction of viability | MDR1 gene expression (MDR1 and MDR2 genes): reduction of their expression in a dose-dependent manner | MRD2 gene expression (MDR1 and MDR2 genes): reduction of their expression in a dose-dependent manner | CCL15 level after stimulation with exogenous SerpinB3 (CCL15 and PD-L1): markedly reduced | PD-L1 level after stimulation with exogenous SerpinB3 (CCL15 and PD-L1): markedly reduced | Tumor formation compared with mice that did not receive the compound ([2]; control (wild type) mice, DEN 25 mg/kg i.p. then CDAA diet, PPA weekly i.p. 50 ng/g body weight, preliminary results): remarkable reduction of tumor formation | Tolerability in the experimental model ([2]; experimental model): well tolerated | PPA concentration up to which no cellular toxicity is observed ([3]; PPA 5-50 μg/ml): up to 5 μg/ml | PPA doses at which cellular toxicity is highlighted (curves below the control curve) [3]: 25 to 50 µg/mL | Proliferative activity (Normalized Cell Index) [4]: reduction of the proliferative activity which has proved to be dose-dependent | Constitutive SerpinB3 expression (SerpinB3; OE33 and HepG2/SB3 cells, PPA 10-100 ng/ml): reduces in a dose-dependent manner | Reduction of the synthesis of SerpinB3 (SerpinB3; PPA concentrations of 1-10 ng/ml): about 50% | SerpinB3 expression induced by exogenous treatment (SerpinB3; THP-1 and HT29 cells, PPA 1-100 ng/ml with recombinant SerpinB3 20-200 ng/ml, 24 hours): reduces in a dose-dependent manner

O=c1[nH]cc(F)c(=O)[nH]1 [5-Fluorouracil, reference compound]
Resistance/sensitivity to drug-induced cell death, HepG2/SB3 compared with HepG2/CTR [1]: not different
